Assay results from patent US11279744B2, “Neuropeptide Y fragment capable of releasing hematopoietic stem cells into blood and treating osteoporosis” (Kyungpook National University Industry-Academic Cooperation …, priority 2017, dated 2022).
Entries after “also recorded” stand apart in the source; their conditions may differ. Non-standard residues stand in square brackets, D forms with d. No end group written: not given here.

Legend:
[1] = system: hematopoietic stem cell adhesion factors (Sdf-1a, KitI, Angpt1) present in osteoblasts; experiment: expression of hematopoietic stem cell adhesion factors in osteoblasts, real-time quantitative PCR; type: cell-based, mouse; conditions: for expression levels of Sdf-1a, KitI, and Angpt1 in osteoblasts: 10 nM peptide for 3 days, compared to osteoblasts (control) not treated with peptides, fold change
Method: All mice used in the experiment were 6 to 8 weeks old mice, C57BL/6 mice, and purchased from Jackson Laboratory (Bar Harbor, Me., USA). NPY (21-28) (SEQ ID NO: 1), NPY (24-31) (SEQ ID NO: 2), NPY (29-36) (SEQ ID NO: 3), NPY D25 (21-28) (SEQ ID NO: 4), NPY D26 (21-28) (SEQ ID NO: 5), NPY D25, 26 (21-28) (SEQ ID NO: 6), NPY (21-36) (Osteopep2) (SEQ ID NO: 7) were prepared from Anygen. Full length NPY (SEQ ID NO: 8) was purchased from Bachem. 10 nM of each peptide was diluted in each medium and injected for in vitro experiments. The NPY D^25(21-28) refers to a peptide in which arginine, the fifth amino acid of the amino acid sequence of NPY (21-28), is modified to D-type, the NPY D^26(21-28) refers to a peptide in which the sixth amino acid histidine is modified to D-form, and the D^25,26(21-28) refers to a peptide in which both the fifth and sixth amino acids are modified to D-form, respectively.
Four to six weeks old C57BL/6 mice were sacrificed after anesthesia, and then tibias and femurs were dissected. Bone marrow was harvested from tibias and femurs and single cell suspensions were obtained using a 40 μm cell strainer (Becton-Dickinson LAβware, Franklin Lakes, N.J.). Approximately […] were dispensed into 75-cm 2 flasks containing mesenchymal stem cells Stimulatory Supplements with antibiotics (Stem Cell Technologies, Inc) and MesenCult™ MSCBasal medium. The cells were incubated for 1 week and further incubated for 3 weeks with StemXVivo Osteogenic/Adipogenic Base Media (R & D systems) supplemented with StemXVivo Osteogenic supplement (20×) and penicillin-streptomycin (100×) for differentiation into osteoblasts.
Real-time quantitative PCR was used to measure expression levels of hematopoietic stem cell adhesion factors (Sdf-1a, KitI, Angpt1) present in osteoblasts. Total RNA was extracted from cell eluate and bone marrow cells using the RNeasy Plus mini kit (Qiagen, Korea, Ltd), and cDNAs were synthesized from 5 μg total RNA using a kit in Clontech (Mountain View, Calif.). In addition, using a Corbett research RG-6000 real-time PCR instrument, Real-time quantitative PCR was performed at 95° C. for 10 minutes; at 95° C., for 10 seconds; at 58° C., for 15 seconds; at 72° C. for 20 seconds as one cycle, and 40 cycles were repeated.
First, bone marrow was harvested from 4 to 6 weeks old C57BL6 mice, and mesenchymal stem cells (BM-MSCs) in bone marrow were collected, and then cultured for 3 weeks in osteoblast differentiation induction medium for the differentiation into osteoblasts. After 28 days, each peptide was treated with 10 nM for 3 days, and bone cells were collected and examined for expression levels of three adhesion factors by real-time quantitative PCR. Osteopep2 and its parent NPY were used as positive controls.

[2] = system: myelopoiesis progenitor cells in the blood; experiment: Colony-forming unit (CFU) assay, progenitor cells in blood of osteoporosis animal models; type: in vivo, mouse; conditions: OVX mice, 50 μg/kg i.p. twice a day for 4 weeks, blood 1 hour after last dose
Method: To make an osteoporosis model, 10-18 12 weeks old female mice per group underwent ovarian ablation. A week later, 50 μg/kg of NPY(21-28), NPY D^25(21-28), NPY D^26(21-28), NPY D^25,26(21-28), Osteopep2, NPY and 100 μl of PBS(Gibco) were intraperitoneally administered twice a day for 4 weeks at 12 hour intervals. Alendronate (Sigma), used as a competitive drug, was intraperitoneally administered once a week for 4 weeks at a dose of 50 μg/kg. As a control group, only Sham model of osteoporosis was performed by subcutaneous dissection of female mouse. Mice were placed in experimental groups using the Block randomization method, and all mouse experiments were approved through the Kyungpook National University Institutional Animal Care and Use Committee. CFU analysis was performed to determine the number of bone marrow hematopoietic progenitor cells in the blood of mice. After anesthetizing the mouse first, 500 μl to 700 μl of blood were collected in a heparin tube by cardiac drawing, and then placed in ammonium chloride solution (Stem Cell Technologies, Inc. 1:10) and placed on ice for 15 minutes to remove red blood cells. The red blood cells were well shaken at intervals of 2 to 3 minutes and centrifuged at 1000 rpm for 7 minutes. The supernatant was removed and washed with IMDM (Gibco) supplied with 2% fetal bovine serum (FBS, Gibco). The washed cells (3×10^5 per mouse) were divided into three 35 mm dishes containing methylcellulose-based media (Methocult, Stem cell), and after the cells were incubated for two weeks, the number of colonies formed in the flask was counted. In order to investigate whether the NPY (21-28) of the present invention affects the blood release of myelopoiesis stem cells in the animal models of osteoporosis, the following experiments were carried out according to the methods of Examples 1-1, 1-3, 1-4, and 1-5. In order to make animal models of osteoporosis, 12 weeks old C57BL/6 female mice were subjected to ovarian ablation for 10 to 18 animals in each group. One week later, 50 μg/kg of NPY (21-28) and 100 μl of PBS (Gibco) were intraperitoneally administered twice a day for 4 weeks at 12 hour intervals. As a control group, mice that underwent only subcutaneous incisions in normal mice were used. Weight change was measured weekly, and bone marrow and blood were collected one hour after the last dose at 4 weeks, and the release of myelopoiesis progenitor and stem cells into blood was analyzed. The positive control group, NPY (21-36), Osteopep2 and full length NPY (50 μg/kg, intraperitoneally administered twice a day for 4 weeks) were used. Alendronate used as a competitive drug for osteoporosis treatment was intraperitoneally administered at a dose of 50 μg/kg for 4 weeks once a week. […]

Substance | expression levels of Sdf-1a, KitI, and Angpt1 in osteoblasts [1] | releasing myelopoiesis progenitor cells into blood (CFU assay) [2] | amount of Angpt1 expression in osteoblasts, compared with NPY (21-28) ([1]; 10 nM peptide, osteoblasts) | releasing myelopoiesis progenitor cells into blood (CFU assay) ([2]; listed as NPY D^25,26 (21-28))
YSALRHYI [NPY (21-28)] | decreased | increases; also recorded: superior to Osteopep2 and NPY |  | 
NPY D^25,26(21-28): peptide in which both the fifth and sixth amino acids of NPY (21-28) are modified to D-form (YSAL[dR][dH]YI) | decreased | increases | further reduce the amount of Angpt1 expression than NPY (21-28) | highest efficiency; also recorded: even better than that of NPY (21-28)
NPY D^25(21-28): peptide in which arginine, the fifth amino acid of the amino acid sequence of NPY (21-28), is modified to D-type (YSAL[dR]HYI) | decreased | increases |  | 
